Experimental findings from US7531320B2, “Modulation of β-catenin/TCF-activated transcription” (priority 2003, dated 2009) are described below.

The test system of this assay is c-jun. Kind of assay: Real Time RT-PCR in SW480 cells, c-jun. The settings on record: 25 μM; for ΔCT c-jun: relative to β-actin. It is filed as cell-based, human. The procedure: The RNeasy Midi Kit (Qiagen) was used for RNA extraction and Real Time RT-PCR was performed according to the protocol provided with the SYBR Green PCR Master Mix Kit (Perkin Elmer Biosystems, Shelton, Conn.). The primers used for cyclin D1, axin2, hnkd, c-myc, c-jun, and fra-1 amplifications were: cyclin D1 forward primer:5′-[…]-CCTGCTG-3′ (SEQ ID NO: 32) reverse primer: 5′-[…]-3′ (SEQ ID NO: 33) leading to a product size of approximately 300 bp; axin2 forward primer: 5′-[…] GGAAA-CT-3′ (SEQ ID NO: 34) and reverse primer: 5′-[…]-GAGA-3′ (SEQ ID NO: 35); hnkd forward primer: 5′-[…] TTGCGT-3′ (SEQ ID NO: 36) and the reverse primer: 5′-[…] ACGT-3′ (SEQ ID NO: 37); c-myc forward primer: 5′-GAA-[…] CTGC-3′ (SEQ ID NO: 38) and reverse primer: 5′-[…]-G-3′ (SEQ ID NO: 39); c-jun forward primer: 5′-[…]-3′ (SEQ ID NO: 40) and reverse primer: 5′-[…]-3′ (SEQ ID NO: 41); fra-1 forward primer: 5′-ACC-[…]-[…]-3′ (SEQ ID NO: 42) and reverse primer: 5′-[…]-TT-3′ (SEQ ID NO: 43). β-actin was used for normalization. […]
1 μg of mRNA, for each time point, was subjected to Real Time RT-PCR. Expression level of endogenous cyclin D1, c-myc, fibronectin, hnkd, axin2, c-jun, and BMP-4 were measured relative to β-actin. Quantitation of The ΔCycle of Threshold (CT) values was determined by subtracting the average values of each set by the corresponding average values obtained for β-actin. […]
The cyclin D1 gene is inappropriately expressed in many different tumor types, and is known to be a direct target of the Wnt/β-catenin pathway (Shtutman et al., “The cyclin D1 gene is a target of the beta-catenin/LEF-1 pathway,” Proc. Natl. Acad. Sci. USA 96:5522-27 (1999); Tetsu et al., “Beta-catenin regulates expression of cyclin D1 in colon carcinoma cells,” Nature 398:422-26 (1999)). […] Expression level of endogenous cyclin D1, c-myc, fibronectin, hnkd, axin2, c-jun, and BMP-4 were measured relative to β-actin. Quantitation of The ΔCycle of Threshold (CT) values was determined by subtracting the average values of each set by the corresponding average values obtained for β-actin. […]

The structures appear in SMILES notation.

For the compound `O=C1C(Cc2ccc(O)cc2)N2C(=O)CCN(C(=O)NCc3ccccc3)C2CN1Cc1cccc2ccccc12` (stereo not drawn) [COMPOUND 1], the “mRNA c-jun (direction)” value was “↑”. For the same compound, the ΔCT c-jun (4 hours) was 0. The same compound displayed a ΔCT c-jun (24 hours) of −2.9.
